The text below walks through data of PMC10094048, “Synthesis and Anticancer Evaluation of 4-Anilinoquinolinylchalcone Derivatives” (International Journal of Molecular Sciences, 2023).

The structures appear in SMILES notation. Counter-ions that a name gives are not always drawn. Like-named read-outs stand apart in the source and are kept apart here. A value given as a limit tells only on which side of the number the result lay.

In data set [1] the test system is rheumatoid arthritis fibroblast-like synoviocytes. The settings on record: cited from earlier work.
For data set [2], the system named is human retinoblastoma Y79 cell. The arrangement: method as in PMID 26564153. As to conditions: 48 h XTT assay; read-out: IC50 Y79 cell proliferation; cited from earlier work.
For data set [3] the following is noted: cited from earlier work.
A further data set has as its system retinoblastoma cells. The arrangement: method as in PMID 26564153. As to conditions: cited from earlier work.
Data set [4] has as its system Huh-7. Nature of the data set: XTT antiproliferative assay, Huh-7. It is filed as cell-based. The settings on record: Homo sapiens, 72 h, mean ± SD. As to the method: (§1) All the synthesized 4-anilinoquinolinylchalcone derivatives were evaluated in vitro against two cancer cells (Huh-7 and MDA-MB-231) and a non-cancer normal fibroblast lung cell line (MRC-5) using an XTT (sodium 3′-[1-(phenylamino-carbonyl)-3,4-tetrazolium}-bis(4-methoxy-6-nitro)benzene sulfonic acid hydrate) assay. The concentration that inhibited the growth of 50% of cells (IC50) was determined from the linear portion of the curve by calculating the concentration of the tested agent that reduced absorbance in treated cells, compared to control cells, by 50%. The IC50 results of these 4-anilinoquinolinylchalcone derivatives are summarized (Table 1). […] Thus, 4a was selected as a lead compound for further mechanism studies.
(§2) Cancer cells (Huh-7, MDA-MB-231) and normal lung cells (MRC-5) were purchased from Bioresources Collection and Research Center, Taiwan. Cells were maintained in the same standard medium, grown as a monolayer in DMEM (Gibco, Miami, FL, USA), and supplemented with 10% fetal bovine serum (FBS) and antibiotics, i.e., 100 IU/mL penicillin, 0.1 mg/mL streptomycin and 0.25 μg/mL amphotericin. The culture was maintained at 37 °C with 5% CO2 in a humidified atmosphere. Cells (5 × 10^3 cells/well) were treated with tested compounds for 72 h in the medium containing 10% FBS. Cell viability was quantitated with the use of sodium 3′-[1-(phenylamino-carbonyl)-3,4-tetrazolium}-bis(4-methoxy-6-nitro)benzene sulfonic acid hydrate (XTT) colorimetric assay (Biological Industries, Beit-Haemek, Israel). XTT labeling reagent (1 mg/mL) was mixed with electron-coupling reagent, following the manufacturer’s instructions, and 50 μL of the mixture was added directly to the cells. The plates were further incubated at 37 °C for 4 h. Color was measured spectrophotometrically in a microtiter plate reader at 492 nm and used as a relative measurement of viable cell numbers. After drug treatment, the viable cell number was compared to the solvent and untreated control cell number. This information was used to determine the percent of control growth as (Abtreated/Abcontrol) × 100, where Ab represents the mean absorbance (n = 3). The concentration that killed 50% of cells (IC50) was determined from the linear portion of the curve by calculating the concentration of the agent that reduced the absorbance in treated cells, compared to control cells, by 50%.

In a further data set the test system is MDA-MB-231. Briefly: XTT antiproliferative assay, MDA-MB-231. It counts as cell-based. As to conditions: Homo sapiens, 72 h, mean ± SD. As to the method: as §1, §2
A further data set relates to MRC-5. Briefly: XTT antiproliferative assay, normal lung cells MRC-5. It counts as cell-based. The settings on record: Homo sapiens, MRC5, 72 h, mean ± SD. The method, then: as §1, §2
The test system of data set [5] is breast cancer MDA-MB-231 cells. Nature of the data set: Cellular ATP assay (ATPlite luminescence). It is filed as cell-based, human. The settings on record: MDA-MB-231, 24 h. As to the method: ATP levels are another cell viability indicator [31, 32, 33]. To further confirm the inhibition of the cell proliferative ability of compound 4a, the cellular ATP levels of breast cancer MDA-MB-231 cells were assessed (Figure 2).
Cellular ATP was determined using the ATPlite luminescence reagent (PerkinElmer Life Sciences, Boston, MA, USA). According to the user instruction, the cell lysate of treated cells was reacted with ATPlite substrate for 5 min in the dark. Finally, the luminescence was detected by a luminometer (Berthold Technologies GmbH & Co., Bad Wildbad, Germany).

Data set [6] concerns breast cancer MDA-MB-231 cells. Briefly: Annexin V/7AAD apoptosis assay (flow cytometry). It counts as cell-based, human. As to conditions: MDA-MB-231, 24 h, 5 and 10 μM versus control and 1 μM. The method, then: To examine the apoptosis-inducing ability of compound 4a, the annexin V/7-aminoactinomycin D (7-AAD) change in breast cancer MDA-MB-231 cells was assessed. […] Compound 4a, consisting of both versatile quinoline and chalcone moieties, was also active in inducing cancer cell apoptosis.
Annexin V/7AAD flow cytometry was a common method for detecting apoptosis. The commercial product containing annexin V-FITC (1:1000) and 7AAD (1 μg/mL) (Strong Biotech; Taipei, Taiwan) was applied to stain drug-treated cells for 1 h. Finally, these stained cells were conducted with flow cytometry (Guava easyCyte, Luminex, TX, USA).

Data set [7] relates to breast cancer MDA-MB-231 cells. Nature of the data set: ROS assay (H2DCFDA flow cytometry). The settings on record: MDA-MB-231, 24 h. It is filed as cell-based, human. The method, then:
To evaluate the ROS-inducing ability of compound 4a, the flow cytometry-based ROS detection of breast cancer MDA-MB-231 cells was conducted.
The oxidative stress indicator, such as ROS, was selected to assess the impact of drug treatment on the change in oxidative stress. According to the manufacturer’s instructions, the ROS reacting probe 2′,7′-dichlorodihydrofluorescein diacetate (H2DCFDA) (Sigma-Aldrich) was applied to drug-treated cells. Finally, these stained cells were conducted with flow cytometry.

Data set [8] concerns breast cancer MDA-MB-231 cells. Briefly: Caspase 3/7 luminescence assay. It counts as cell-based, human. As to conditions: for caspase 3/7 activation: 24 h. The method, then: Using the caspase 3/7 luminescence assay, the modulating ability of breast cancer MDA-MB-231 cells on caspase 3/7 signaling with compound 4a was evaluated. […] Moreover, this caspase 3/7 activation with compound 4a was suppressed by NAC pretreatment.
Caspase 3/7 activation is the essential process for apoptosis, which was measured by the caspase-Glo® 3/7 assay (Promega; Madison, WI, USA), and its signal was read and recorded by a Luminometer (Berthold Technologies GmbH & Co., Bad Wildbad, Germany). The role of the induction of ROS affecting caspase 3/7 activity in drug-treated cells was evaluated by the 1 h pretreatment of 10 mM NAC [45, 49, 50].

In data set [9] the test system is non-small-cell lung A549 cancer cells. The settings on record: 48 h trypan blue exclusion assay; read-out: IC50 antiproliferation A549; cited from earlier work.
The subject of a further data set is MDA-MB-231 cell line. The arrangement: method as in PMID 31234033. The settings on record: after 24 h of treatment; read-out: IC50 cytotoxicity on MDA-MB-231; cited from earlier work.
Data set [10] relates to Huh-7. Further details: method as in PMID 31234033. The settings on record: Chen et al.; cited from earlier work.
In a further data set the test system is HepG2. The arrangement: method as in PMID 31234033. The settings on record: Chen et al.; cited from earlier work.
The next data set concerns HA22T. The arrangement: method as in PMID 31234033. The settings on record: Chen et al.; cited from earlier work.

`COc1ccc(C(=O)/C=C/c2cc(Nc3ccc(OCc4ccc(F)cc4)cc3)c3ccccc3n2)cc1` (as salt: salt) [Compound 4h, (E)-3-{4-{ {4-[ (4-Fluorobenzyl)oxy]phenyl}amino}quinolin-2-yl}-1-(4-methoxy - phenyl)prop-2-en-1-one] came in with a melting point of 176 to 177 °C.

`O=C(/C=C/c1cc(Nc2ccc(OCc3ccccc3)cc2)c2ccccc2n1)c1ccc(F)cc1` (as salt: salt) [Compound 5a, (E)-3-{4-{[4-(Benzyloxy)phenyl]amino}quinolin-2-yl}-1-(4-fluorophenyl)prop-2-en-1-one] yielded a melting point of 162 to 163 °C.

On to `O=C(/C=C/c1cc(Nc2ccc(OCc3ccccc3Cl)cc2)c2ccccc2n1)c1ccc(F)cc1` (as salt: salt) [Compound 5b, (E)-3-{4-{{4-[(2-Chlorobenzyl)oxy]phenyl}amino}quinolin-2-yl}-1-(4-fluorophenyl) prop-2-en-1-one], for which the melting point lay in the range of 192 to 193 °C.

The compound `O=C(/C=C/c1cc(Nc2ccc(OCc3ccccc3F)cc2)c2ccccc2n1)c1ccc(F)cc1` (as salt: salt) [Compound 5c, (E)-3-{4-{{4-[(2-Fluorobenzyl)oxy]phenyl}amino}quinolin-2-yl}-1-(4-fluorophenyl) prop-2-en-1-one] came in with a melting point of 207 to 208 °C.

Regarding `O=C(/C=C/c1cc(Nc2ccc(OCc3cccc(Cl)c3)cc2)c2ccccc2n1)c1ccc(F)cc1` (as salt: salt) [Compound 5d, (E)-3-{4-{{4-[(3-Chlorobenzyl)oxy]phenyl}amino}quinolin-2-yl}-1-(4-fluorophenyl) prop-2-en-1-one], the melting point was 172 to 173 °C.

On to `O=C(/C=C/c1cc(Nc2ccc(OCc3cccc(F)c3)cc2)c2ccccc2n1)c1ccc(F)cc1` (as salt: salt) [Compound 5e, (E)-3-{4-{{4-[(3-Fluorobenzyl)oxy]phenyl}amino}quinolin-2-yl}-1-(4-fluorophenyl)prop-2-en-1-one], for which the melting point lay within 213 to 214 °C.

The compound `COc1cccc(COc2ccc(Nc3cc(/C=C/C(=O)c4ccc(F)cc4)nc4ccccc34)cc2)c1` (as salt: salt) [Compound 5f, (E)-1-(4-Fluorophenyl)-3-{4-{{4-[(3-methoxybenzyl)oxy]phenyl}amino}quinolin-2-yl}prop-2-en-1-one] came in with a melting point of 165 to 166 °C.

Turning to `O=C(/C=C/c1cc(Nc2ccc(OCc3ccc(Cl)cc3)cc2)c2ccccc2n1)c1ccc(F)cc1` (as salt: salt) [Compound 5g, (E)-3-{4-{{4-[(4-Chlorobenzyl)oxy]phenyl}amino}quinolin-2-yl}-1-(4-fluorophenyl)prop-2-en-1-one], the melting point is 179 to 180 °C.

The compound `O=C(/C=C/c1cc(Nc2ccc(OCc3ccc(F)cc3)cc2)c2ccccc2n1)c1ccc(F)cc1` (as salt: salt) [Compound 5h, (E)-3-{4-{{4-[(4-Fluorobenzyl)oxy]phenyl}amino}quinolin-2-yl}-1-(4-fluorophenyl)prop-2-en-1-one] gave a melting point of 254 to 255 °C.

Turning to `COc1cc(/C=C/C(=O)c2ccc3ccccc3c2O)cc(OC)c1` [(E)-3-(3,5-dimethoxyphenyl)-1-(1-hydroxynaphthalen-2-yl) prop-2-en-1-one], in [1], the ROS burst entry is “evoke ROS burst”.

As to `O=C1c2cc(OCCN3CCCC3)ccc2-c2c(-c3ccc(OCCN4CCCC4)cc3)nc3ccc(OCCN4CCCC4)cc3c21` [BPIQ, 2,9-bis [2-(pyrrolidin-1-yl)ethoxy]-6-{4-[2-(pyrrolidin-1-yl)ethoxy]phenyl}-11H-indeno[1,2-c]quinolin-11-one], in [2], the IC50 was 13.6 µM. In data set [3], the apoptosis induction result is “apoptosis induction”. Besides, the ROS production result in the data set on retinoblastoma cells was “induces ROS production”.

With `COc1ccc(C(=O)/C=C/c2cc(Nc3ccc(OCc4ccccc4)cc3)c3ccccc3n2)cc1` [Compound 4a, (E)-3-{4-{[4-(Benzyloxy)phenyl]amino}quinolin-2-yl}-1-(4-methoxyphenyl)prop-2-en-1-one], the IC50 in the data set with Huh-7 [4] is 1.47 ± 0.07 µM; in the data set with MDA-MB-231 it was 0.11 ± 0.07 µM; with MRC-5, more than 20 µM. Moreover, the “cellular ATP levels” value in [5] was “dose-responsive downregulation of ATP”. For the same compound, the “annexin V/7AAD apoptosis” value in data set [6] is listed as “more significant apoptosis”. Also, in data set [7], the ROS induction result is “dose-responsive induction of ROS”. In addition, the “caspase 3/7 activation” value is “inactive” in data set [8] (MDA-MB-231, 1 μM); “significant caspase 3/7 activation” in data set [8] (MDA-MB-231, 5 and 10 μM). In addition, in data set [8] (MDA-MB-231, 1 h pretreatment of 10 mM NAC, then 4a 24 h), the “caspase 3/7 activation after NAC pretreatment” value was “suppressed”.

Regarding `CN(C)CCCOc1ccc(-c2nc3ccc(F)cc3c3c2-c2ccc(OCCCN(C)C)cc2C3=O)cc1` [DFIQ], the IC50 in data set [9] is 3.53 µM.

In the case of `CS(=O)(=O)CCNCc1ccc(-c2ccc3ncnc(Nc4ccc(OCc5cccc(F)c5)c(Cl)c4)c3c2)o1` [Lapatinib], the IC50 is 12.5 ± 0.28 µM with Huh-7 [4]; 12.8 ± 0.91 µM in the data set with MDA-MB-231; more than 20 µM with MRC-5; 32.5 µM with MDA-MB-231 cell line; 2.11 µM in the data set with Huh-7 [10]; 3.42 µM in the data set with HepG2. For the same compound, in the data set on HA22T, the IC50 is 4.85 µM.
